pEC50: −log10 of the molar value.
What was measured:
[1] = tested on: Hep3B-OS8-hPDL1 / Jurkat-NFAT-PD1 cells; assay: PDL1 Jurkat-NFAT reporter assay; type: cell-based; details: Homo sapiens; 6 hours, luciferase
Description: PDL1 Jurkat-NFAT Reporter Assay
a. Preparation of Hep3B-OS8-hPDL1 • 1. Hep3B-OS8-hPDL1 cells were cultured in 1640 medium supplemented with 10% fetal bovine serum, 1% penicillin and streptomycin, in which 100 μg/mL G418 and Hygromycin B were also added. • 2. Cells were re-suspended with RPMI 1640 medium containing 10% FBS and the cell density was adjusted to 1.25E5 cells/mL. • 3. Cells were seeded into 96-well flat bottom plate (1.25E4 cells/100 μL/well). b. Compounds Solutions Preparation • 4. Remove the medium from pre-plated Hep3B-OS8-PDL1 cells. Wash once with 200 μL Assay Medium. • 5. Prepare the Compounds dilutions in RPMI 1640 medium with 10% FBS according to the Layout. • 6. Add compounds into each well in a volume of 50 μL in 9 concentrations (3, 1, 0.3, 0.1, 0.03, 0.01, 0.003, 0.001 and 0.0003 μM)}. Keytruda will be included as positive control at the concentration of 5 μg/mL. • 7. Incubate for 20-30 min at 37° C., 5% CO2. c. Preparation of Jurkat-NFAT-PD1 • 8. Jurkat-NFAT-PD1 cells were cultured in 1640 medium supplemented with 10% fetal bovine serum, 1% penicillin and streptomycin, in which 1000 μg/mL Hygromycin B and 0.3 μg/mL puromycin were also added. • 9. On the second day of assay, the cells were re-suspended with RPMI 1640 medium containing 10% FBS and the cell density was adjusted to 2.5E5 cells/mL. • 10. […]

[2] = target: PD-L1/CHO-K1 cells (Homo sapiens (Human), UniProt Q9NZQ7); assay: PD-L1 internalization (FACS, PD-L1/CHO-K1 cells); type: cell-based; details: % activation of PD-L1 internalization = 1 − PD-L1 signal; 17 hours incubation
Outline: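 PD-L1/CHO-K1 cells treated 17 h at 37 °C with compound (0.2% DMSO final), then surface PD-L1 stained with PE anti-CD274 and read by flow cytometry. Signal normalized to vehicle (100%) and unstained control (0%); internalization = 1 − normalized PD-L1 signal.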

Chain of PD-L1/CHO-K1 cells (Q9NZQ7 19-290): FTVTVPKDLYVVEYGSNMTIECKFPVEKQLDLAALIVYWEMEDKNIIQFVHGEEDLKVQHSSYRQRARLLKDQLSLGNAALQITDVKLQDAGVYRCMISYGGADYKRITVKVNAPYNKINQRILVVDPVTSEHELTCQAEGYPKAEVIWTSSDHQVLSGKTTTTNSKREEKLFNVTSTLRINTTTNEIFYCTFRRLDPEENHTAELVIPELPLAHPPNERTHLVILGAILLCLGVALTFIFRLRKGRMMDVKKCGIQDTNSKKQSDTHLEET

SMILES: O=C(O)[C@H](CO)NCCN1C(=O)COc2cc(-c3cccc(-c4cccc(-c5ccc6c(c5)OCC(=O)N6CCN[C@@H](CO)C(=O)O)c4Cl)c3Cl)ccc21 [Compound 465]
- pEC50 [1]: 9.52
- Internalization [2]: 67.00%

SMILES: O=C1COc2cc(-c3cccc(-c4cccc(-c5ccc6c(c5)OCC(=O)N6C[C@H]5CCCN5)c4Cl)c3Cl)ccc2N1C[C@H]1CCCN1 [Compound 529]
- pEC50 [1]: 6.95
- Internalization [2]: 98.10%

Source: patent publication US20250340529A1, “Heterocyclic Compounds as Immunomodulators of PD-L1 Interactions” (Ascletis BioScience Co., Ltd, priority 2021, published 2025)
